Results reported in patent US20060251597A1, “ANTI-ODOR COMPOSITIONS AND THERAPEUTIC USE” (priority 2005, published 2006).
Counter-ions that a name gives are not always drawn. *1 amine or outer side, *2 acyl side, *3 side chain or, on linkers, in order; H or OH if unused. Where a SMILES comes first, the peptide text is derived from it. [ ]: non-standard residue; d: D form. γGlu = O=C(O)[C@H](CCC(=O)[*:2])N[*:1]

Tests used:
[1] = panel sniff tests of solvents, ingredients and amines against thiol malodor (general statements); settings: solvent or ingredient, based on the panel tests
Protocol: Initially, a malodor compound such as about 5% by weight was prepared in water solution or in oil-in-water emulsion. A sulfone or organic amine of the present embodiments was added at various concentrations for example, ranging from about 2%, 1%, 0.5% and 0.1% to the formulations containing the malodor substance. The composition containing the malodor substance without a sulfone or organic amine was used as the control.

[2] = anti-odor test, panel by sniffing: N-acetyl-L-cysteine dissolved in a single solvent or liquid ingredient (anhydrous composition); settings: for anti-odor effect: 10% N-acetyl-L-cysteine and 90% solvent or liquid ingredient; for suppression of the malodor, judged by panel: 10% N-acetyl-L-cysteine and 90% solvent
Protocol: An anti-odor test was carried out in an anhydrous solvent according to the following example. In a series of test tubes, 4.5 ml of a solvent was added to a test tube such that each test tube comprised a single solvent. The solvents added to the test tubes included water, ethanol, acetone, n-propanol, isopropyl alcohol, propylene glycol, butylenes glycol, benzyl alcohol, ethoxydiglycol, 2-ethyl-1,3-hexanediol. N-Acetyl-L-cysteine (MW 163) 0.5 g was then added and dissolved in each solvent. The test tubes were warmed slightly to enhance dissolution of N-acetyl-L-cysteine crystals. Each test tube contained 10% N-acetyl-L-cysteine and 90% solvent.
An anti-odor test was carried out in an anhydrous composition according to the following example. In a series of test tubes, 4.5 ml of a liquid ingredient was added to a test tube such that each test tube comprised a single liquid ingredient. The liquid ingredients added to a test tube included ethyl glycolate, ethyl-L-lactate, diethyl tartrate, triethyl citrate, tripropyl citrate, ethyl-DL-mandelate, benzyl N-acetyl-prolinate, ethyl N-acetyl-prolinate, propyl N-acetyl-prolinate. N-Acetyl-L-cysteine (MW 163) 0.5 g was then added and dissolved in each liquid ingredient. The test tubes were warmed slightly to enhance dissolution of N-acetyl-L-cysteine crystals. Each test tube contained 10% N-acetyl-L-cysteine and 90% liquid ingredient. The panel judged the anti-odor effect in each test tube.

[3] = anti-odor test, panel by sniffing: thiol or similar malodor compound in anhydrous composition
Protocol: In the same manner, the degree of reducing the presence or preventing the production of malodor generated by a thiol or similar malodor compounds in an anhydrous composition containing a solvent or ingredient of the present embodiments was judged by three-member panel through olfactory sensor by sniffing as (a) no difference from control, (b) slight malodor, (c) trace malodor, and (d) no malodor. In an initial test, a solvent or liquid ingredient of the present embodiments at 4.5 ml was added to a test tube, and a thiol or similar malodor compounds 0.5 g was added to make 10% thiol or similar malodor compounds in the solution. The control solution was prepared by dissolving a thiol or similar malodor compounds 0.5 g in water 4.5 ml to make 10% aqueous solution. The above test solutions including the control solutions were judged by the panel for the anti-odor effect and the degree of reducing the presence or preventing the production of malodor was recorded in the same way as (a) no effect (no difference from control), (b) slight malodor (50% effective), (c) trace malodor (90% effective), and (d) no malodor (completely effective).

[4] = 2% malodor compound in anhydrous solution of isopropyl alcohol 50 parts, diethyl tartarate 25 parts, triethyl citrate 25 parts v/v
[5] = 10% malodor compound in anhydrous solution of isopropyl alcohol 50 parts, diethyl tartarate 25 parts, triethyl citrate 25 parts v/v

Row | Structure (SMILES) | prevention of malodor produced by a thiol or similar malodor compounds [1] | anti-odor effect [2] [%] | further results
1 | CCOC(=O)CC(O)(CC(=O)OCC)C(=O)OCC [triethyl citrate] | effectively prevent malodor | 100 | –
2 | CCCOC(=O)CC(O)(CC(=O)OCCC)C(=O)OCCC [tripropyl citrate] | effectively prevent malodor | 100 | –
3 | CC(=O)N1CCC[C@H]1C(=O)OCc1ccccc1 [benzyl N-acetyl-prolinate] | effectively prevent malodor | 100 | –
4 | CCOC(=O)[C@@H]1CCCN1C(C)=O [ethyl N-acetyl-prolinate] | effectively prevent malodor | 100 | –
5 | OCCCCO [butylene glycol] | effectively prevent malodor | – | suppression of the malodor, judged by panel [2]: did not suppress the malodor
6 | CC(=O)N[C@@H](CCC(=O)N[C@@H](CS)C(=O)NCC(=O)O)C(=O)O [N-Acetyl-L-glutathione] (Ac-[γGlu]-Cys-Gly-OH) | – | – | malodor as judged by panel [3, 4]: did not have any malodor
7 | CCCC(O)C(CC)CO (stereo not drawn) [2-ethyl-1,3-hexanediol] | effectively prevent malodor | 100 | –
8 | CCCOC(=O)[C@@H]1CCCN1C(C)=O [propyl N-acetyl-prolinate] | effectively prevent malodor | 100 | –
9 | CCOC(=O)C(O)C(O)C(=O)OCC (stereo not drawn) [diethyl tartrate] | effectively prevent malodor | 100 | –
10 | OCc1ccccc1 [benzyl alcohol] | – | 100 | –
11 | CCOCCOCCO [ethoxydiglycol] | effectively prevent malodor | 100 | –
12 | CCOC(=O)CNC(=O)[C@H](CS)NC(=O)CC[C@H](N)C(=O)OCC [L-Glutathione diethyl ester] | – | – | malodor as judged by panel [3, 5]: did not have any malodor
13 | O [water] | – | – | suppression of the malodor, judged by panel [2]: did not suppress the malodor
14 | CCOC(=O)CNC(=O)[C@H](CS)NC(=O)CC[C@H](NC(C)=O)C(=O)OCC [N-Acetyl-L-glutathione diethyl ester] | – | – | malodor as judged by panel [3, 5]: did not have any malodor; malodor as judged by panel ([3]; 10% malodor compound in diethyl tartarate, anhydrous): did not have any malodor
15 | CC(C)O [isopropyl alcohol] | effectively prevent malodor | 100 | –
16 | CC(O)CO (stereo not drawn) [propylene glycol] | – | – | suppression of the malodor, judged by panel [2]: did not suppress the malodor
17 | CCC(=O)N[C@@H](CS)C(=O)O [N-Propanoyl-L-cysteine] | – | – | malodor as judged by panel [3, 4]: did not have any malodor
18 | CCOC(=O)[C@H](CSC(C)=O)NC(C)=O [N,S-Diacetyl-L-cysteine ethyl ester] | – | – | malodor as judged by panel [3, 5]: did not have any malodor
19 | COC(=O)[C@H](CSC(C)=O)NC(C)=O [N,S-Diacetyl-L-cysteine methyl ester] | – | – | malodor as judged by panel [3, 5]: did not have any malodor
20 | CCOC(=O)C(O)c1ccccc1 (racemic) [ethyl-DL-mandelate] | – | 100 | –
21 | CCO [ethanol] | – | – | suppression of the malodor, judged by panel [2]: did not suppress the malodor
22 | CCCO [n-propanol] | effectively prevent malodor | 100 | –
23 | CCOC(=O)CO [ethyl glycolate] | effectively prevent malodor | 100 | –
